# In patent US20260091082A1, “CYCLIC PEPTIDE DERIVATIVE COMPOSITION FOR TREATING OR PREVENTING EYE DISEASE” (DKS Co. Ltd., priority 2022, published 2026):
# Values joined by “and” are separate entries in the source; they are usually repeats but may differ in a detail not shown here. Equal entries are not always repeated. “Also recorded” adds a separate entry of the source.
# Test system: anterior chamber aqueous humor pressure load rat model
# Test: Retinal thickness (IPL, INL, ONL) in retinal damage model induced by anterior chamber aqueous humor pressure load
# Format: in vivo, Rat; Slc: SD
# Conditions: for Inner plexiform layer (IPL) thickness compared with the control group, in words: 300 to 900 μm from the optic disk
# Procedure: • Name: Compound 9 • Source: Synthesized in the above Examples • Used amount: 0.4 mL (50 mg/mL solution) • Storage conditions: Freezing, light shielding
# Method for preparing test substance (1 mg/mL): A high concentration solution prepared at 50 mg/mL was diluted 50 times with a medium to prepare a 1 mg/mL administration solution.
# • Name: MK-801 • Distributor: SIGMA-ALDRICH • Use amount: 0.0501 g • Storage condition: refrigerated (2° C. to 8° C.)
# Method for preparing positive control substance (10 mg/mL): 0.0501 g was weighed out and made up to a total volume of 5 mL with a control substance (physiological saline).
# • Species and strains: Rat; Slc: SD • Number of animals on arrival and sex: 50 males • Age in weeks at arrival: 6 weeks old • Body weight range at arrival: 147.2 to 170.0 g • Source: Japan SLC, Inc.
# Grouping was performed two days before the first creation of the retinal damage model induced by an anterior chamber aqueous humor pressure load. Using the daily body weight as an index, stratified random allocation was performed using SAS (Ver. 9.3, SAS Institute Japan Ltd.) and EXSUS (Ver. 8.0, CAC Croit Corporation) so that an average value of the body weights of each group was approximately uniform.
# • Administration route: Eyedrop administration, intravenous administration • Administration method (eyedrop): Eyedrop administration was performed on a treated eye (right eye) of a rat using a micropipette 4 times a day (at intervals of 1.5 hours or more). • Administration method (intravenous): The amount of administration solution, calculated from the body weight on the day of administration, was administered from the tail vein using a syringe and an injection needle about 30 minutes before ischemic load. • Time of administration: Administration was performed according to the following schedule.
# 1. 10 mg/kg xylazine hydrochloride was intramuscularly administered on the model creation day (day 0). A rat was placed in an anesthesia box and subjected to general anesthesia with isoflurane (5%, oxygen:nitrous oxide=1:3). When anesthesia was effective, the rat was taken out of the anesthesia box, an inhalation anesthetic mask was worn, and anesthesia was maintained with isoflurane (1% to 5%, oxygen nitrous oxide=1:3).
# 2. The body temperature was maintained at 37° C. with a warming mat, and a mydrin P ophthalmic solution was instilled in the right eye (treated eye) of the rat to dilate the pupil, then the cravit ophthalmic solution 1.5% (Santen Pharmaceutical Co., Ltd.) was instilled.
# 3. A bottle of an IV bag containing physiological saline was previously suspended so that a water surface was 155 cm (100 mmHg or more) higher than the eye of the rat. The IV bag was connected to a pediatric infusion set (Terumo Corporation), a 27 G injection needle thereof was inserted into and fixed to the anterior chamber while slightly dripping the liquid from a needle tip. The model was created in the light phase (6:00 to 18:00) in consideration of the diurnal variation of the intraocular pressure.
# 4. After the needle was inserted into the anterior chamber, pressure (100 mmHg or more) was loaded and maintained in the anterior chamber by associating the reflux system.
# 5. After an ischemic load for 45 minutes, the injection needle and the like were removed, the inhalation anesthetic mask was removed, and the rat was sufficiently woken up under a warming mat, and then returned to the cage.
# 6. For 2 days after surgery, 10 mg/kg xylazine hydrochloride was intramuscularly administered as an analgesic for the purpose of alleviating the pain after the treatment.
# 1. Fourteen days after model creation, general anesthesia was performed with isoflurane (5%, oxygen:nitrous oxide=1:3), euthanasia was then performed by exsanguination, a suture was placed as a marker at the 12 o'clock position of the ocular conjunctiva, and eyeball enucleation was performed.
# 2. […]
# [1] = compound 9, 1 mg/mL eye drop, right eye, individual animals 301-310
# [2] = test groups 2 and 3 (test substance groups)
smiles,measurement,setting,value
CC[C@@]1(C)Oc2cc(ccc2O)C[C@H](NC)C(=O)N[C@@H](C(C)C)C(=O)N[C@@H]1C(=O)N[C@@H](CC(=O)O)C(=O)O [Compound 9],"Thickness of INL (μm), Distance from Optic Disk 900 μm","compound 9 (pre), 1 mg/mL eye drop, right eye, 900 μm from optic disk, individual measurements per animal",34.804 μm and 34.579 μm and 36.245 μm and 30.909 μm and 31.452 μm and 30.862 μm and 27.037 μm and 29.926 μm (2×) and 22.638 μm and 25.416 μm and 27.482 μm and 24.116 μm and 23.512 μm and 24.261 μm and 34.939 μm and 35.346 μm and 31.197 μm and 28.785 μm and 32.162 μm and 30.368 μm and 28.858 μm and 27.378 μm and 29.877 μm and 36.469 μm and 34.623 μm and 36.346 μm and 31.402 μm and 31.035 μm and 29.653 μm
same,"Thickness of IPL (μm), Distance from Optic Disk 900 μm","compound 9 (pre), 1 mg/mL eye drop, right eye, 900 μm from optic disk, individual measurements per animal, listed as compond 9",36.789 μm and 36.607 μm and 39.836 μm and 44.120 μm and 43.136 μm and 43.354 μm and 44.421 μm and 42.075 μm and 41.663 μm and 37.132 μm and 35.896 μm and 35.907 μm and 36.540 μm and 39.019 μm and 40.323 μm and 10.804 μm and 39.318 μm and 42.252 μm and 44.289 μm and 46.476 μm and 47.334 μm and 41.468 μm and 39.312 μm and 40.445 μm and 49.477 μm and 48.242 μm and 50.923 μm and 38.230 μm and 37.912 μm and 42.098 μm
same,"Thickness of INL (μm), Distance from Optic Disk 900 μm, Mean","compound 9 (pre), 1 mg/mL eye drop, right eye, 900 μm from optic disk, mean per animal",35.209 μm and 31.074 μm and 28.963 μm and 25.179 μm and 23.963 μm and 33.827 μm and 30.438 μm and 28.704 μm and 35.813 μm and 30.697 μm
same,"Thickness of IPL (μm), Distance from Optic Disk 900 μm, Mean","compound 9 (pre), 1 mg/mL eye drop, right eye, 900 μm from optic disk, mean per animal, listed as compond 9",37.744 μm and 43.537 μm and 42.720 μm and 36.312 μm and 38.627 μm and 40.791 μm and 46.033 μm and 40.408 μm and 49.547 μm and 39.413 μm
same,"Thickness of ONL, distance from optic disk 300 μm (single measurement)",[1],29.809 μm and 32.509 μm and 28.214 μm and 43.038 μm and 41.873 μm and 42.494 μm and 36.113 μm and 33.931 μm and 32.522 μm and 36.780 μm and 37.800 μm and 37.520 μm and 42.742 μm and 39.019 μm and 43.913 μm and 40.612 μm and 41.912 μm and 42.252 μm and 45.276 μm and 46.187 μm (2×) and 47.148 μm and 61.386 μm and 56.945 μm and 55.989 μm and 51.520 μm and 53.774 μm and 52.512 μm and 40.451 μm and 43.373 μm
same,"Thickness of ONL, distance from optic disk 600 μm (single measurement)",[1],30.220 μm and 32.139 μm and 47.765 μm and 48.521 μm (2×) and 35.360 μm and 35.504 μm and 40.331 μm and 37.009 μm and 49.431 μm and 49.964 μm and 42.863 μm and 40.883 μm and 44.362 μm and 46.081 μm and 44.179 μm and 42.769 μm and 44.033 μm and 41.550 μm and 42.129 μm and 31.379 μm and 50.234 μm and 36.932 μm and 39.277 μm and 47.914 μm and 40.524 μm and 43.548 μm and 48.975 μm and 41.515 μm and 45.970 μm
same,"Thickness of ONL, distance from optic disk 900 μm (single measurement)",[1],26.908 μm and 28.742 μm and 28.226 μm and 52.295 μm and 46.680 μm and 52.512 μm and 29.438 μm and 34.522 μm and 34.086 μm and 36.727 μm and 35.966 μm and 41.192 μm and 41.663 μm and 39.411 μm and 42.337 μm and 37.593 μm and 40.812 μm and 38.516 μm and 42.098 μm and 44.443 μm and 46.165 μm and 42.932 μm and 37.619 μm and 42.252 μm and 39.713 μm and 39.071 μm and 42.321 μm and 37.664 μm and 38.550 μm and 42.169 μm
same,"Inner plexiform layer (IPL) thickness compared with the control group, in words",test group 2 (preventive: eye drop on the 2 days before model creation),statistically significant differences were observed at all measurement sites; also recorded: statistically significant effect of suppressing retinal damage by aqueous humor pressure load was observed at all measurement sites
same,"Inner plexiform layer (IPL) thickness compared with the control group, in words",test group 3 (therapeutic: eye drop for 13 days from the day after model creation),statistically significant differences were observed at all measurement sites; also recorded: statistically significant effect of suppressing retinal damage by aqueous humor pressure load was observed at all measurement sites; also recorded: almost equivalent to that of the MK-801
same,"Inner nuclear layer (INL) thickness compared with the control group, in words",[2],no obvious change was observed
same,"Outer nuclear layer (ONL) thickness compared with the control group, in words",[2],no obvious change was observed
